Patent publication US20110218229A1, “SIRT1 Modulation of Adipogenesis and Adipose Function” (priority 2003, published 2011)

Experiments:
3T3-L1 fibroblasts [1] = assay: 3T3-L1 adipogenesis / differentiation (Oil Red O staining); type: cell-based, mouse
Procedure: The 3T3-L1 mouse fibroblasts used in this example, and in Examples 4-10 hereinafter, were prepared in accordance with standard protocol as follows. 3T3-L1 cells (ATCC CL-173, Rockville, Md.) were grown to confluence (day 0) in medium A (Dulbecco's modified Eagle's Medium with 10% fetal calf serum, 100 units/ml penicillin, and 100 μg/ml streptomycin). Confluent cell were incubated in medium A containing 2 μM insulin, 1 μM dexamethasone, and 0.25 mM isobuthyl methyl xanthine for two days. Thereafter, confluent fibroblasts were treated with insulin for five days and at the end of such treatment were in a condition for functional study. Adipogenesis was evaluated by analysis of the expression of adipocyte-specific markers and by staining of lipids with Oil Red O (Chawla & Lazar, 1994, Proc. Natl. Acad. Sci. USA 91, 1786-1790).
(§1) 3T3-L1 fibroblasts were transformed through standard techniques with either a pBABE control vector (“control fibroblasts”) or a vector comprising pBABE-mSIRT1 cDNA (“mSIRT1 cDNA fibroblasts”). Western Blot analyses of SIRT1 expression by the control and mSIRT1 cDNA fibroblasts were performed using antibodies and actin control as in Example 1.
(§2) 3T3-L1 fibroblasts were transformed with either a pSUPER control vector (“control fibroblasts”), a vector comprising pSUPER-mSIRT1 RNAi WT (SEQ ID NO: 24) (“mSIRT1 RNAi WT fibroblasts”), or pSUPER-mSIRT1 RNAiMUT (SEQ ID NO: 25), (“mSIRT1 RNAiMUT fibroblasts”). Western Blot analyses of SIRT1 expression by the control, mSIRT1 RNAi WT, and mSIRT1 RNAiMUT fibroblasts were performed using antibodies and actin controls as in Example 1.
To stimulate adipogenesis and accumulation of lipids in cells, medium was supplemented to confluent cells (day 0) with 2 μM insulin or 10^−7M rosiglitazone (Alexis Biochemicals), as stated in the text, 1 μM dexamethasone, and 0.25 mM isobuthylmethylxanthine (IBMX) for 2 days. […] Fat accumulation was visualized by staining of lipids with Oil red O. Intracellular triglyceride levels were measured in cell lysates by an enzymatic method using a reagent kit from Boehringer Mannheim.

3T3-L1 adipocytes [2] = assay: Fat content by staining in fully differentiated 3T3-L1 cells; type: cell-based, mouse
Procedure: (§3) We fully differentiated 3T3-L1 cells and subsequently (12 days after induction) applied the Sirt1 activator resveratrol over a wide range of concentrations. […] To validate further these visual results, we measured triglyceride content and free fatty acid (FFA) release in these cells.
(§4) To stimulate adipogenesis and accumulation of lipids in cells, medium was supplemented to confluent cells (day 0) with 2 μM insulin or 10^−7M rosiglitazone (Alexis Biochemicals), as stated in the text, 1 μM dexamethasone, and 0.25 mM isobuthylmethylxanthine (IBMX) for 2 days. The cells were then incubated with insulin or 10^-7 M rosiglitazone, changing the medium every second day. Fat accumulation was visualized by staining of lipids with Oil red O. Intracellular triglyceride levels were measured in cell lysates by an enzymatic method using a reagent kit from Boehringer Mannheim.

3T3-L1 adipocytes [3] = assay: Triglyceride content in fully differentiated 3T3-L1 cells; type: cell-based, mouse; settings: control cells
Procedure: as §3, §4

3T3-L1 adipocytes [4] = assay: Free fatty acid (FFA) release in fully differentiated 3T3-L1 cells; type: cell-based, mouse
Procedure: as §3
Wild-type FVB male age-matched (12-16 weeks old) mice were used for the present studies. Sirt1+/+ and Sirt1+/− genotypes have been described previously 21. All mice were housed under controlled temperature (25±1° C.) and lighting conditions. Food provided was normal chow. All mice were cared for in accordance with the MIT animal care committee. Blood was collected from the retro-orbital sinus and kept on ice until centrifugation (1,500 g, 15 min at 4° C.), and the plasma was stored at −20° C. until analysis. All animals were killed by decapitation. WAT depots were collected, weighed and quickly frozen in liquid nitrogen and stored at −70° C. until further processing by immunoblotting. Non-esterified free fatty acids were determined by enzymatic assays (Wako Pure Chemical Industries).

[5] = tested on: primary rat white adipocytes; assay: FFA release triggered by adrenalin in primary white adipocytes; type: cell-based; settings: with adrenalin
Text: To determine whether Sirt1 stimulates fat mobilization in bona fide adipocytes, we cultured primary rat white adipocytes and activated fat mobilization with the known β-adrenergic inducer adrenalin. […] In a converse experiment using these rat adipocytes, we addressed whether inhibition of Sirt1 would blunt the mobilization of fat by adrenalin. Addition of the known Sirt1 inhibitor nicotinamide 16 indeed reduced the release of FFA triggered by adrenalin. The above findings indicate that Sirt1 not only represses the differentiation program of adipocytes, but also activates the mobilization of fat in fully differentiated cells.
Cell culture, retroviral infection and transfection. 3T3-L1, HEK293, 293T and Phoenix cells (ATCC, Rockville, Md.) were cultured in Dulbecco's modified Eagle's medium with 10% FCS, and antibiotics. Primary adipocytes from Sprague-Dawley rats were prepared as described previously 25. Transfections for luciferase assays were done as described using pSPORT6-PPAR-γ2, pGL3-PPRE26 and pcDNA3-Sirt1. Data were corrected for transfection efficiency.

UCP1 = UCP1 expression in BAT cells; type: cell-based
Text: Further observations were made. A mouse genetically deficient for SIRT1 activity cannot regulate body temperature in the cold. The mouse appears unable to induce the UCP1 gene or related transcriptional programs. We used chromatin immunoprecipitations to characterize genes which may include regulatory sequences that are directly or indirectly bound by SIRT1. We discovered that, at least in brown fat cells, the UCP1 promoter is bound by SIRT1. SIRT1 responds to stress and activates UCP1 transcription. At least in part, the transcriptional activation is a result of the PGC1 co-factor, which is present in BAT cells, but absent in WAT cells, PGC1 modifies SIRT1 from a repressor to an activator. PGC1, SIRT1, and PPARγ are able to form a ternary complex which functions as a transcriptional activator. SIRT1 may have a similar function in other cells that express PGC1, e.g., muscle and liver cells. Moreover, resveratrol increases UCP1 expression in BAT cells.

SIRT1 = SIRT1 expression in transformed 3T3-L1 fibroblasts (Western Blot); type: cell-based, mouse; settings: for SIRT1 expression level versus control fibroblasts: Western Blot, actin control
Procedure: Samples of inguinal, epididymal, and retroperitoneal WAT were taken from the mice and subjected to Western Blot analyses using actin as a control to determine if SIRT1 was expressed in each of the three samples. Protein samples were prepared from WAT adipocytes by lysis in RIPA buffer supplemented with protease inhibitors. Twenty micrograms of protein were resolved in 9% SDS-PAGE and transferred to nitrocellulose membranes. SIRT1 protein was probed with mSIRT1 antibody (Upstate Inc.) and detected by ECL (Amersham). An actin antibody (Santa Cruz) was used in the Western Blot as a control. Pronounced SIRT1 expression levels were detected in each of the three WAT samples.
as §1, §2
Retroviral infection was performed as described in Tontonoz et al. (1994) Cell 79:1147. Phoenix cells were transfected with either pBABE, pBABE-Sirt1, pSUPERretro (Oligoengine), pSUPERretro-Sirt1 RNAi (5′-GATGAAGTTGACCTCCTCA-3′, SEQ ID NO:24) or pSUPER-NCoR RNAi (5′-GCTGCATCCAAGGGCCATG-3′, SEQ ID NO:25) using Lipofectamine (Invitrogen). After 48 h of transfection, the medium containing retroviruses was collected, filtered, treated by polybrene (1 μg ml^−1) and transferred to 3T3-L1 target cells. Infected cells were selected with puromycin (2.5 μg ml^−1) for 7 days.

3T3-L1 fibroblasts [6] = assay: Isoproterenol-induced lipolysis in 3T3-L1 (fatty acid concentration); type: cell-based, mouse; settings: day 7, isoproterenol (10^−5M), four hours; controls 0.627 mM (pBABE) and 0.508 mM (pSUPER)
Procedure: The amount of fat generated by adipocyte lipolysis should be proportional to the fat content of the adipocyte. In the experiment of this example, four samples of 3T3-L1 fibroblasts were prepared essentially as in Example 3 (except for the change in protocol noted below), and transformed as in Examples 4 and 5 with either pBABE control vector (“pBABE control fibroblasts”), pBABE-mSIRT1 cDNA (“mSIRT1 cDNA fibroblasts”), pSUPER control vector (“pSUPER control fibroblasts”), or pSUPER-mSIRT1 RNAi WT (SEQ ID NO: 24) (“mSIRT1 RNAi WT fibroblasts”).
Fatty acid concentrations in each of the four samples were measured four hours later and the results of these measurements are shown in FIG. 1. Six wells were used for each of the four samples. Results from the different wells were averaged.

[7] = tested on: C/EBPβ, C/EBPδ, C/EBPα, PPARγ, aP2; assay: Adipogenesis transcription factor levels in 3T3-L1 (Western Blot, semi-quantitative RT-PCR); type: cell-based, mouse
Procedure: 3T3-L1 fibroblasts were transformed through standard techniques with either a pBABE control vector (“control fibroblasts”) or a vector comprising pBABE-mSIRT1 cDNA (“mSIRT1 cDNA fibroblasts”) in accordance with Example 4. Protein and total RNA was extracted from the differentiated cells. Western Blot analyses of levels of the PPARγ and C/EBPα transcription factors present in the protein extracts from the control and mSIRT1 cDNA fibroblasts were performed using antibodies and actin control as in Example 1.
Semi-quantitative RT-PCR analysis was also conducted to determine levels of the C/EBPβ, C/EBPδ, C/EBPα, PPARγ transcription factors and aP2 (PPARγ target gene) present in the protein and total RNA extracted from the control and mSIRT1 cDNA fibroblasts. In this analysis, GAPDH was used as an internal control for cDNA input in the PCR.
3T3-L1 fibroblasts were transformed through standard techniques with either a pSUPER control vector (“control fibroblasts”) or a vector comprising pSUPER-mSIRT1 RNAiWT ([…]) (“mSIRT1 RNAiWT fibroblasts”) in accordance with Example 5. Protein and total RNA was extracted from the differentiated cells. […]
Semi-quantitative RT-PCR analysis was also conducted to determine levels of the C/EBPβ, C/EBPδ, C/EBPα, PPARγ, and aP2 (PPARγ target gene) present in the protein and total RNA extracted from the control and mSIRT1RNAiWT fibroblasts. […]

3T3-L1 fibroblasts [8] = assay: Intracellular triglyceride levels in transformed 3T3-L1; type: cell-based, mouse; settings: day 7, Folch extraction, six wells per condition
Procedure: Fibroblast intracellular trigylceride (“TG”) levels should decrease upon inhibition of fibroblast differentiation resulting from overexpression of SIRT1. Consistent with Examples 4 and 5, it should be possible to measure in a quantitative manner the amount of intracellular triglycerides that can be observed by Oil Red O staining. To do so, 3T3-L1 fibroblasts were prepared as in Example 3 and transformed as in Examples 4 and 5 with either pBABE control vector (“pBABE control fibroblasts”), pBABE-mSIRT1 cDNA (“mSIRT1 cDNA fibroblasts”), pSUPER control vector (“pSUPER control fibroblasts”), or pSUPER-mSIRT1 RNAi WT (SEQ ID NO: 24) (“mSIRT1 RNAi WT fibroblasts”).
At day 7, the cells were lysed in methanol and neutral lipids were extracted by the Folch method and resuspended in isopropanol. Triglyceride levels were measured by calorimetric methods using a commercial kit (Trig/GB #450032, Roche Diagnostics, Indianapolis, Ind.). Six wells per condition were analyzed.

3T3-L1 cells = assay: Mitotic divisions after induction (BrdU incorporation) in 3T3-L1; type: cell-based, mouse
Text: We evaluated whether the mammalian Sir2 orthologue, Sirt1, senses nutrient availability in WAT and mediates corresponding effects on fat accumulation. To probe whether Sirt1 may actually modulate adipogenesis, we used mouse 3T3-L1 fibroblasts as an in vitro model. Adipogenesis in these cells is promoted by the nuclear receptor PPAR-γ. Upon induction of adipogenesis by insulin, dexamethasone and isobutylmethylxanthine, we observed that Sirt1, protein levels increased and peaked at day 5 after hormonal stimulation. […] 3T3-L1 cells undergo one or two mitotic divisions after induction as a prelude to terminal differentiation.

NCoR RNAi: pSUPER-NCoR RNAi virus, 5′-GCTGCATCCAAGGGCCATG-3′
reduction of fat accretion by Sirt1 overexpression (3T3-L1 fibroblasts [1]; Sirt1-overexpressing 3T3-L1 fibroblasts infected with NCoR RNAi virus): largely prevented

Oc1ccc(/C=C/c2cc(O)cc(O)c2)cc1 [resveratrol, 3,5,4′-trihydroxy-tans-stilbene]
fat content after staining (3T3-L1 adipocytes [2]; cells in which Sirt1 levels were knocked down): no drug-mediated fat reduction
fat content after staining (3T3-L1 adipocytes [2]; fully differentiated 3T3-L1 cells, 12 days after induction, 50 and 100 μM resveratrol): strong reduction in fat
triglyceride content (3T3-L1 adipocytes [3]): reduced
release of FFA (3T3-L1 adipocytes [4]; Sirt1 knockdown cells): but not in the Sirt1 knockdown cells
release of FFA (3T3-L1 adipocytes [4]; control cells): stimulated
release of FFA triggered by adrenalin [5]: greatly stimulated
UCP1 expression (UCP1): increases

mSIRT1 RNAi WT: pSUPER vector with RNAi sequence 5′-GATGAAGTTGACCTCCTCA-3′ (SEQ ID NO: 24), interferes with SIRT1 expression
fat / triglyceride accumulation versus control vector (3T3-L1 fibroblasts [1]; Oil red O staining after 7 days of differentiation or intracellular triglyceride content): significant increase in triglyceride accumulation
differentiation by Oil Red O staining versus control fibroblasts (3T3-L1 fibroblasts [1]; transformed 3T3-L1 fibroblasts): marked increase in differentiation
change of Sirt1 gene expression (SIRT1; retroviral infection of 3T3-L1 cells): downregulation (sevenfold)
lipolysis level (fatty acid concentration) (3T3-L1 fibroblasts [6]): 0.727 mM
PPARγ levels versus control fibroblasts ([7]; Western Blot of extracts from differentiated cells): Higher levels of PPARγ
levels of C/EBPβ, C/EBPδ, C/EBPα, PPARγ and aP2 ([7]; semi-quantitative RT-PCR, GAPDH internal control): increased levels of all of the assayed transcription factors except C/EBPβ
TG levels versus respective control (3T3-L1 fibroblasts [8]): higher
mitotic divisions after induction (3T3-L1 cells): occurred normally

mSIRT1 RNAiMUT: mutation of mSIRT1 RNAiWT, 5′-GATGAAGTCGACCTCCTCA-3′ (SEQ ID NO: 25) (expressed or natural sequence)
SIRT1 expression level versus control fibroblasts (SIRT1): comparable with those of the control fibroblasts
SIRT1 expression level versus control fibroblasts (SIRT1; listed as SIRT1 mRNAi-mut): no effect on SIRT1 expression

NC(=O)c1cccnc1 [nicotinamide]
release of FFA triggered by adrenalin [5]: reduced
